Source: ChEMBL document CHEMBL1201862, “PubChem BioAssay data set” (2004)
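Exposure lasted 48 hours, with cells grown in 96-well plates and compounds tested at five concentrations. The concentration for 50% growth inhibition is given as GI50.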 Active and inactive are the calls of the source. Rule as the data show it: active = GI50 up to about 1.1 µM and inactive = higher.

Assays:
Test in all cases: NCI anticancer screen, dose series, 48 h
[1] = system: 786-0
[2] = system: A549
[3] = system: COLO 205
[4] = system: HCT-116
[5] = system: HL-60
[6] = system: Hs-578T
[7] = system: IGROV-1
[8] = system: KM12
[9] = system: MDA-N
[10] = system: MOLT-4
[11] = system: OVCAR-4
[12] = system: OVCAR-8
[13] = system: PC-3
[14] = system: RXF 393
[15] = system: SF-268
[16] = system: SK-MEL-2
[17] = system: SK-OV-3
[18] = system: SR
[19] = system: TK-10
[20] = system: UO-31

Measured: GI50

NS(=O)(=O)c1ccc(NC(=O)N/N=C/c2ccccc2[N+](=O)[O-])cc1
inactive: [1] 45.6 µM | [2] > 100 µM | [3] 38.4 µM | [4] 30.1 µM | [5] 46.1 µM | [6] 46.6 µM | [7] 31.2 µM | [8] 36 µM | [9] 19.4 µM | [10] 39.8 µM | [11] 59.8 µM | [12] 37.7 µM | [13] 35.6 µM | [14] > 100 µM | [15] 56.6 µM | [16] 58.7 µM | [17] 45.5 µM | [18] 17.9 µM | [19] > 100 µM | [20] 41 µM
